Test results: ChEMBL document CHEMBL6114979, “Discovery of 3-indolylbenzoquinone derivatives with therapeutic potential for breast cancer” (Bioorg Med Chem, 2025)
Calls of active or inactive are those of the source. The rule behind the calls is not given here.

Assays:
[1] = Toxicity in female Balb/c mouse implanted with mouse 4T1 cells assessed as change in spleen at 25 to 35 mg/kg, ip administered once every 2 days for 14 days; assay type: organism-based; settings: in vivo, 48 h, dose 25-35 mg/kg, time 2 day
[2] = tested on: MDA-MB-231; assay: Induction of apoptosis in human MDA-MB-231 cells assessed as late apoptotic cells at 1 uM incubated for 24 hrs by Annexin-V/PI staining based flow cytometric analysis (reference value: 3.24%); assay type: functional
[3] = tested on: MDA-MB-231; assay: Induction of apoptosis in human MDA-MB-231 cells assessed as necrotic cells at 1 uM incubated for 24 hrs by Annexin-V/PI staining based flow cytometric analysis (reference value: 0.71%); assay type: functional
[4] = tested on: MDA-MB-231; assay: Induction of cell cycle arrest in human MDA-MB-231 cells assessed as accumulation of cells at G0/G1 phase at 1 uM incubated for 24 hrs by PI staining based flow cytometric analysis (reference value: 57.31%); assay type: functional
[5] = tested on: MDA-MB-231; assay: Induction of cell cycle arrest in human MDA-MB-231 cells assessed as accumulation of cells at G2/M phase at 1 uM incubated for 24 hrs by PI staining based flow cytometric analysis (reference value: 33.98%); assay type: functional
[6] = tested on: NIH3T3; assay: Cytotoxicity against mouse 3T3 cells; assay type: toxicity, cell-based
[7] = tested on: MDA-MB-231; assay: Induction of apoptosis in human MDA-MB-231 cells assessed as increase in green fluorescence at 1 uM incubated for 24 hrs in presence of doxorubicin by fluorescence microscopic analysis; assay type: functional, cell-based
[8] = Toxicity in Kunming mouse assessed as change in heart lesions at 240 to 469 mg/kg, ip administered for 14 days by H and E staining based analysis; assay type: organism-based; settings: in vivo, 336 h, dose 240-469 mg/kg, time 14 day
[9] = Toxicity in Kunming mouse assessed as change in spleen lesions at 240 to 469 mg/kg, ip administered for 14 days by H and E staining based analysis; assay type: organism-based; settings: in vivo, 336 h, dose 240-469 mg/kg, time 14 day
[10] = Toxicity in Kunming mouse assessed as change in kidney lesions at 240 to 469 mg/kg, ip administered for 14 days by H and E staining based analysis; assay type: organism-based; settings: in vivo, 336 h, dose 240-469 mg/kg, time 14 day
[11] = Toxicity in Kunming mouse assessed as change in lung morphology at 240 to 469 mg/kg, ip administered for 14 days by H and E staining based analysis; assay type: organism-based; settings: in vivo, 336 h, dose 240-469 mg/kg, time 14 day
[12] = Hepatotoxicity in Kunming mouse assessed as change in ALT level administered intraperitoneally for 14 days (reference value: 45.75 +/- 4.65 U); assay type: toxicity; settings: in vivo, ip, 336 h, time 14 day
[13] = Cardiotoxicity in Kunming mouse assessed as change in LDH level administered intraperitoneally for 14 days (reference value: 1253 +/- 67.28 U); assay type: toxicity; settings: in vivo, ip, 336 h, time 14 day
[14] = tested on: 4T1; assay: Antitumor activity against mouse 4T1 cells implanted in Balb/c mouse assessed as reduction in tumor size at 25 to 35 mg/kg, ip administered once every 2 days 14 days; assay type: functional, organism-based; settings: dose 25-35 mg/kg, time 14.0 day
[15] = tested on: 4T1; assay: Antitumor activity against mouse 4T1 cells implanted in Balb/c mouse assessed as tumor suppression rate at 35 mg/kg, ip administered once every 2 days for 14 days relative to control; assay type: functional
[16] = Toxicity in female Balb/c mouse implanted with mouse 4T1 cells assessed as abnormalities in kidney at 35 mg/kg, ip administered once every 2 days for 14 days; assay type: organism-based; settings: in vivo, 336 h, time 14 day
[17] = tested on: 4T1; assay: Antitumor activity against mouse 4T1 cells implanted in Balb/c mouse assessed as appearance of extensive tumor cell necrosis at 25 mg/kg, ip administered once every 2 days for 14 days; assay type: functional, organism-based; settings: time 14.0 day
[18] = Toxicity in female Balb/c mouse implanted with mouse 4T1 cells assessed as tumor metastasis to lungs at 25 mg/kg, ip administered once every 2 days for 14 days; assay type: organism-based; settings: in vivo, 336 h, time 14 day
[19] = Toxicity in female Balb/c mouse implanted with mouse 4T1 cells assessed as abnormal behaviour at 80 mg/kg, IT administered once every 4 days in presence of olive oil; assay type: organism-based; settings: in vivo, other, 96 h
[20] = Toxicity in female Balb/c mouse implanted with mouse 4T1 cells assessed as mortality at 80 mg/kg, IT administered once every 4 days in presence of olive oil; assay type: organism-based; settings: in vivo, other, 96 h
[21] = tested on: 4T1; assay: Antitumor activity against mouse 4T1 cells implanted in Balb/c mouse assessed as reduction in tumor weight at 80 mg/kg, IT administered once every 4 days in presence of olive oil; assay type: functional, organism-based
[22] = tested on: 4T1; assay: Antitumor activity against mouse 4T1 cells implanted in Balb/c mouse assessed as tumor inhibition rate at 80 mg/kg, IT administered once every 4 days in presence of olive oil relative to control; assay type: functional; set-up: scale not given: the % may be the effect or the level left
[23] = Toxicity in female Balb/c mouse implanted with mouse 4T1 cells assessed as change in body weight at 200 mg/kg, TOP administration once every 2 days for 14 days; assay type: organism-based; settings: in vivo, topical_or_ocular, 336 h, time 14 day
[24] = tested on: 4T1; assay: Antitumor activity against mouse 4T1 cells implanted in Balb/c mouse assessed as smaller tumor at 200 mg/kg, TOP administration once every 2 days for 14 days; assay type: functional, organism-based; settings: time 14.0 day
[25] = tested on: 4T1; assay: Antitumor activity against mouse 4T1 cells implanted in Balb/c mouse assessed as lighter tumor at 200 mg/kg, TOP administration once every 2 days for 14 days; assay type: functional, organism-based; settings: time 14.0 day
[26] = tested on: 4T1; assay: Antitumor activity against mouse 4T1 cells implanted in Balb/c mouse assessed as tumor inhibition rate at 200 mg/kg, TOP administration once every 2 days for 14 days relative to control; assay type: functional; set-up: scale not given: the % may be the effect or the level left; settings: time 14 day
[27] = tested on: 4T1; assay: Antitumor activity against mouse 4T1 cells implanted in Balb/c mouse assessed as appearance of larger intercellular gaps at 80 mg/kg, IT administered once every 4 days for 14 days in presence of olive oil by TEM analysis; assay type: functional, organism-based; settings: time 14.0 day
[28] = tested on: 4T1; assay: Antitumor activity against mouse 4T1 cells implanted in Balb/c mouse assessed as appearance of nuclear membrane disruption at 80 mg/kg, IT administered once every 4 days for 14 days in presence of olive oil by TEM analysis; assay type: functional, organism-based; settings: time 14.0 day
[29] = tested on: 4T1; assay: Antitumor activity against mouse 4T1 cells implanted in Balb/c mouse assessed as appearance of mitochondrial swelling at 200 mg/kg, TOP administration once every 2 days for 14 days; assay type: functional, organism-based; settings: time 14.0 day
[30] = tested on: 4T1; assay: Antitumor activity against mouse 4T1 cells implanted in Balb/c mouse assessed as appearance of vacuolation at 25 to 35 mg/kg, ip administered once every 2 days for 14 days by TEM analysis; assay type: functional, organism-based; settings: dose 25-35 mg/kg, time 14.0 day
[31] = tested on: 4T1; assay: Antitumor activity against mouse 4T1 cells implanted in Balb/c mouse assessed as appearance of vacuolation at 80 mg/kg, IT administered once every 4 days for 14 days in presence of olive oil by TEM analysis; assay type: functional, organism-based; settings: time 14.0 day
[32] = tested on: 4T1; assay: Antitumor activity against mouse 4T1 cells implanted in Balb/c mouse assessed as damage in endoplasmic reticulum at 80 mg/kg, IT administered once every 4 days for 14 days in presence of olive oil by TEM analysis; assay type: functional, organism-based; settings: time 14.0 day
[33] = tested on: 4T1; assay: Antitumor activity against mouse 4T1 cells implanted in Balb/c mouse assessed as damage in endoplasmic reticulum at 200 mg/kg, TOP administration once every 2 days for 14 days; assay type: functional, organism-based; settings: time 14.0 day

SMILES: Cc1[nH]c2ccccc2c1C1=C(F)C(=O)C(F)=C(N2CCOCC2)C1=O
- Activity [1]: Non-toxic
- Activity [2]: 26.4%
- Activity [3]: 3.93%
- Activity [4]: 32.15%
- Activity [5]: 63.64%
- Activity [6]: Toxic
- Activity [7]: Active; Compound Showed More Effect Than Mitoxantrone Treated Group
- Activity [8]: Non-toxic
- Activity [9]: Non-toxic
- Activity [10]: Non-toxic
- Activity [11]: Non-toxic
- Activity [12]: 28.8 U/L
- Activity [13]: 1060 U/L
- Activity [14]: Active
- Activity [15]: 50%
- Activity [16]: Non-toxic
- Activity [17]: Active
- Activity [18]: Toxic
- Activity [19]: Non-toxic
- Activity [20]: Non-toxic
- Activity [21]: Active
- Activity [22]: 41.9%
- Activity [23]: Non-toxic
- Activity [24]: Active
- Activity [25]: Active
- Activity [26]: 38.9%
- Activity [27]: Active
- Activity [28]: Active
- Activity [29]: Active
- Activity [30]: Active
- Activity [31]: Active
- Activity [32]: Active
- Activity [33]: Active
